{"source": "patent EP3928779A1", "about": "(Chugai Seiyaku Kabushiki Kaisha, priority 2014, dated 2016)", "data": [{"system": "rat small-intestinal brush border membrane vesicles", "assay": "Inhibitory effect on 33PO4 uptake into rat small-intestinal brush border membrane vesicles (rapid filtration method)", "type": "biochemical", "conditions": "33PO4 uptake into rat small-intestinal BBMVs; test compound 1 µM; reacted for 60 seconds", "protocol": "Brush border membrane vesicles (BBMVs) were prepared using the upper region of the small intestine of each Wistar female rat (4-5 weeks old). […] The ^33PO4 transport activity of the small-intestinal BBMVs was determined by the rapid filtration method. […] Then, ice-cold buffer C (110 mM NaCl, 1 mM KH2PO4, and 10 mM HEPES (pH 7.5)) was added to each reaction mixture, which was immediately suctionfiltered through a Millipore filter. The filter was washed with buffer C, and each sample was then dissolved in a liquid scintillator. The amount of ^33PO4 uptake into BBMVs was measured using a liquid scintillation counter. […]", "units": {"Rate of uptake inhibition (%) (1 µM)": "%"}, "values": [{"smiles": "Cc1c(C#N)ncnc1-c1cc(C(F)(F)F)ccc1NC(=O)C1=C(O)[C@@]2(C)CCCN2N(Cc2cccc(F)c2F)C1=O", "note": "[Example 24]", "Rate of uptake inhibition (%) (1 µM)": 76}, {"smiles": "COc1c(C#N)ncnc1-c1cc(C(F)(F)F)ccc1NC(=O)C1=C(O)[C@@]2(C)CCCN2N(Cc2cccc(F)c2F)C1=O", "note": "[Example 25]", "Rate of uptake inhibition (%) (1 µM)": 82}, {"smiles": "CCCCCN1C(=O)C(C(=O)Nc2ccc(C(F)(F)F)cc2-c2ccc(C(F)(F)F)nc2)=C(O)[C@@]2(C)CCCN12", "note": "[Example 26]", "Rate of uptake inhibition (%) (1 µM)": 72}, {"smiles": "C[C@]12CCCN1N(Cc1cccc([N+](=O)[O-])c1)C(=O)C(C(=O)Nc1ccc(Br)c(F)c1)=C2O", "note": "[Example 27]", "Rate of uptake inhibition (%) (1 µM)": 76}, {"smiles": "C[C@]12CCCN1N(Cc1cccc(F)c1F)C(=O)C(C(=O)Nc1ccc(Br)c(F)c1)=C2O", "note": "[Example 28]", "Rate of uptake inhibition (%) (1 µM)": 72}, {"smiles": "C[C@]12CCCN1N(Cc1cccc(F)c1F)C(=O)C(C(=O)Nc1cc(F)c(Br)c(F)c1)=C2O", "note": "[Example 29]", "Rate of uptake inhibition (%) (1 µM)": 75}, {"smiles": "CC1(C)CC[C@]2(C)C(O)=C(C(=O)Nc3cc(C(F)(F)F)ccc3-c3ccc(C(F)(F)F)nc3)C(=O)N(Cc3cccc(F)c3F)N12", "note": "[Example 63]", "Rate of uptake inhibition (%) (1 µM)": 72}, {"smiles": "C[C@]12CCCN1N(Cc1cccc(F)c1F)C(=O)C(C(=O)Nc1ccc(Br)cc1-c1cc(C(F)(F)F)ncn1)=C2O", "note": "[Example 64]", "Rate of uptake inhibition (%) (1 µM)": 77}, {"smiles": "COC(=O)c1cccc(-c2cc(C(F)(F)F)ccc2NC(=O)C2=C(O)[C@@]3(C)CCCN3N(Cc3cccc(F)c3F)C2=O)c1OC", "note": "[Example 65]", "Rate of uptake inhibition (%) (1 µM)": 98}, {"smiles": "CCOc1cccc(-c2cc(C(F)(F)F)ccc2NC(=O)C2=C(O)[C@@]3(C)CCCN3N(Cc3cccc(F)c3F)C2=O)c1OC", "note": "[Example 66]", "Rate of uptake inhibition (%) (1 µM)": 96}, {"smiles": "C[C@]12CCCN1N(Cc1cccc(F)c1F)C(=O)C(C(=O)Nc1ccc(C(F)(F)F)cc1-c1cnc(Cl)nc1)=C2O", "note": "[Example 67]", "Rate of uptake inhibition (%) (1 µM)": 91}, {"smiles": "C[C@]12CCCN1N(Cc1cccc(F)c1F)C(=O)C(C(=O)Nc1ccc(C(F)(F)F)cc1-c1cnc(Cl)c(C#N)c1)=C2O", "note": "[Example 68, (4aR)-N-[2-(6-Chloro-5-cyanopyridin-3-yl)-4-(trifluoromethyl)phenyl]-1-[(2,3-difluorophenyl)methyl]-4-hydroxy-4a-methyl-2-oxo-6,7-dihydro-5H-pyrrolo[1,2-b]pyridazine-3-carboxamide]", "Rate of uptake inhibition (%) (1 µM)": 84}, {"smiles": "Cc1c(Cl)ncnc1-c1cc(C(F)(F)F)ccc1NC(=O)C1=C(O)[C@@]2(C)CCCN2N(Cc2cccc(F)c2F)C1=O", "note": "[Example 69]", "Rate of uptake inhibition (%) (1 µM)": 74}, {"smiles": "C[C@]12CCCN1N(Cc1cccc(F)c1F)C(=O)C(C(=O)Nc1ccc(C(F)(F)F)cc1-c1ncnc(Cl)c1Cl)=C2O", "note": "[Example 70]", "Rate of uptake inhibition (%) (1 µM)": 79}, {"smiles": "CN(C)S(=O)(=O)c1ccc(-c2cc(C(F)(F)F)ccc2NC(=O)C2=C(O)[C@@]3(C)CCCN3N(Cc3cccc(F)c3F)C2=O)s1", "note": "[Example 71]", "Rate of uptake inhibition (%) (1 µM)": 97}, {"smiles": "COc1ncc(-c2cc(C(F)(F)F)ccc2NC(=O)C2=C(O)[C@@]3(C)CCCN3N(Cc3cccc(F)c3F)C2=O)c(OC)n1", "note": "[Example 72]", "Rate of uptake inhibition (%) (1 µM)": 92}, {"smiles": "C[C@]12CCCN1N(Cc1cccc(F)c1F)C(=O)C(C(=O)Nc1ccc(C(F)(F)F)cc1-c1cnc(Br)cn1)=C2O", "note": "[Example 73]", "Rate of uptake inhibition (%) (1 µM)": 74}, {"smiles": "C[C@]12CCCN1N(Cc1cccc(F)c1F)C(=O)C(C(=O)Nc1ccc(C(F)(F)F)cc1-c1cnc(Cl)cn1)=C2O", "note": "[Example 74]", "Rate of uptake inhibition (%) (1 µM)": 82}, {"smiles": "C[C@]12CCCN1N(Cc1cccc(F)c1F)C(=O)C(C(=O)Nc1ccc(Br)cc1F)=C2O", "note": "[Example 75]", "Rate of uptake inhibition (%) (1 µM)": 74}, {"smiles": "C[C@]12CCCN1N(Cc1cccc(F)c1F)C(=O)C(C(=O)Nc1ccc(Cl)cc1F)=C2O", "note": "[Example 76]", "Rate of uptake inhibition (%) (1 µM)": 77}, {"smiles": "C[C@]12CCCN1N(Cc1cccc(F)c1F)C(=O)C(C(=O)Nc1ccc(Br)cc1)=C2O", "note": "[Example 77]", "Rate of uptake inhibition (%) (1 µM)": 80}, {"smiles": "C[C@]12CCCN1N(Cc1cccc(F)c1F)C(=O)C(C(=O)Nc1ccc(Br)cn1)=C2O", "note": "[Example 78]", "Rate of uptake inhibition (%) (1 µM)": 71}, {"smiles": "C[C@]12CCCN1N(Cc1cccc(F)c1F)C(=O)C(C(=O)Nc1ccc(Cl)cn1)=C2O", "note": "[Example 79]", "Rate of uptake inhibition (%) (1 µM)": 71}, {"smiles": "COc1cc(C)c(-c2cc(C(F)(F)F)ccc2NC(=O)C2=C(O)[C@@]3(C)CCCN3N(Cc3cccc(F)c3F)C2=O)cn1", "note": "[Example 80]", "Rate of uptake inhibition (%) (1 µM)": 75}, {"smiles": "COc1cncc(-c2cc(C(F)(F)F)ccc2NC(=O)C2=C(O)[C@@]3(C)CCCN3N(Cc3cccc(F)c3F)C2=O)c1", "note": "[Example 81]", "Rate of uptake inhibition (%) (1 µM)": 74}, {"smiles": "C[C@]12CCCN1N(Cc1cccc(F)c1F)C(=O)C(C(=O)Nc1ccc(C(F)(F)F)cc1-c1cncc(C#N)c1)=C2O", "note": "[Example 82]", "Rate of uptake inhibition (%) (1 µM)": 100}, {"smiles": "C[C@]12CCCN1N(Cc1cccc(F)c1F)C(=O)C(C(=O)Nc1ccc(C(F)(F)F)cc1-c1cnc3ccccc3c1)=C2O", "note": "[Example 83]", "Rate of uptake inhibition (%) (1 µM)": 90}, {"smiles": "C[C@]12CCCN1N(Cc1cccc(F)c1F)C(=O)C(C(=O)Nc1ccc(C(F)(F)F)cc1-c1cc(Cl)cnc1Cl)=C2O", "note": "[Example 84]", "Rate of uptake inhibition (%) (1 µM)": 91}, {"smiles": "C[C@]12CCCN1N(Cc1cccc(F)c1F)C(=O)C(C(=O)Nc1ccc(C(F)(F)F)cc1-c1ccc(C(F)(F)F)nc1Br)=C2O", "note": "[Example 85]", "Rate of uptake inhibition (%) (1 µM)": 71}, {"smiles": "C[C@]12CCCN1N(Cc1cccc(F)c1F)C(=O)C(C(=O)Nc1ccc(Cl)cc1-c1ccc(C(F)(F)F)nc1)=C2O", "note": "[Example 86]", "Rate of uptake inhibition (%) (1 µM)": 83}, {"smiles": "CN(C)S(=O)(=O)c1ccc(-c2nc(C(F)(F)F)ccc2NC(=O)C2=C(O)[C@@]3(C)CCCN3N(Cc3cccc(F)c3F)C2=O)cc1", "note": "[Example 87]", "Rate of uptake inhibition (%) (1 µM)": 84}, {"smiles": "C[C@]12CCCN1N(Cc1cccc(F)c1F)C(=O)C(C(=O)Nc1ccc(C(F)(F)F)cc1)=C2O", "note": "[Example 89]", "Rate of uptake inhibition (%) (1 µM)": 67}, {"smiles": "C[C@]12CCCN1N(Cc1cccc(F)c1F)C(=O)C(C(=O)Nc1ccc(C(F)(F)F)cc1-c1ccc(C(F)(F)F)nc1)=C2O", "note": "[Example 90]", "Rate of uptake inhibition (%) (1 µM)": 91}, {"smiles": "C[C@]12CCCN1N(Cc1cccc(F)c1F)C(=O)C(C(=O)Nc1ccc(C(F)(F)F)cc1-c1cncc(C(F)(F)F)c1)=C2O", "note": "[Example 91]", "Rate of uptake inhibition (%) (1 µM)": 87}, {"smiles": "COCCOc1cc(NC(=O)C2=C(O)[C@@]3(C)CCCN3N(Cc3cccc(F)c3F)C2=O)c(-c2cccc(OC)c2OC)cc1C(F)(F)F", "note": "[Example 92]", "Rate of uptake inhibition (%) (1 µM)": 81}, {"smiles": "COc1cccc(-c2cc(C(F)(F)F)ccc2NC(=O)C2=C(O)[C@@]3(C)CCCN3N(Cc3cccc(F)c3F)C2=O)n1", "note": "[Example 93]", "Rate of uptake inhibition (%) (1 µM)": 56}, {"smiles": "C[C@]12CCCN1N(Cc1cccc(F)c1F)C(=O)C(C(=O)Nc1ccc(C(F)(F)F)cc1-c1cnc(C#N)c([N+](=O)[O-])c1)=C2O", "note": "[Example 99, (4aR)-N-[2-(6-Cyano-5-nitropyridin-3-yl)-4-(trifluoromethyl)phenyl]-1-[(2,3-difluorophenyl)methyl]-4-hydroxy-4a-methyl-2-oxo-6,7-dihydro-5H-pyrrolo[1,2-b]pyridazine-3-carboxamide]", "Rate of uptake inhibition (%) (1 µM)": 82}, {"smiles": "C[C@]12CCCN1N(Cc1cccc(F)c1F)C(=O)C(C(=O)Nc1ccc(C(F)(F)F)cc1-c1cc(C#N)ncn1)=C2O", "note": "[Example 100]", "Rate of uptake inhibition (%) (1 µM)": 69}, {"smiles": "Cc1cc(-c2cc(C(F)(F)F)ccc2NC(=O)C2=C(O)[C@@]3(C)CCCN3N(Cc3cccc(F)c3F)C2=O)cnc1C#N", "note": "[Example 101]", "Rate of uptake inhibition (%) (1 µM)": 57}, {"smiles": "C[C@]12CCCN1N(Cc1ccc(OCCN3CCOCC3)c(F)c1F)C(=O)C(C(=O)Nc1ccc(Cl)cc1-c1ccc(C(F)(F)F)nc1)=C2O", "note": "[Example 102]", "Rate of uptake inhibition (%) (1 µM)": 65}, {"smiles": "CSc1ccc(-c2cc(C(F)(F)F)ccc2NC(=O)C2=C(O)[C@@]3(C)CCCN3N(Cc3ccc(OCCN4CCOCC4)c(F)c3F)C2=O)cn1", "note": "[Example 103]", "Rate of uptake inhibition (%) (1 µM)": 78}, {"smiles": "CSc1ncc(-c2cc(C(F)(F)F)ccc2NC(=O)C2=C(O)[C@@]3(C)CCCN3N(Cc3ccc(OCCN4CCOCC4)c(F)c3F)C2=O)cn1", "note": "[Example 104]", "Rate of uptake inhibition (%) (1 µM)": 73}, {"smiles": "CSc1ccc(-c2nc(C(F)(F)F)ccc2NC(=O)C2=C(O)[C@@]3(C)CCCN3N(Cc3cccc(F)c3F)C2=O)cn1", "note": "[Example 105]", "Rate of uptake inhibition (%) (1 µM)": 72}, {"smiles": "C[C@]12CCCN1N(Cc1ccc(OCCN3CCOCC3)c(F)c1F)C(=O)C(C(=O)Nc1ccc(C(F)(F)F)nc1-c1cncc(C(F)(F)F)c1)=C2O", "note": "[Example 106]", "Rate of uptake inhibition (%) (1 µM)": 79}, {"smiles": "C[C@@]12CCCN1N(Cc1ccc(OCCN3CCOCC3)c(F)c1F)C(=O)C(C(=O)Nc1ccc(Cl)cc1-c1cc(C(F)(F)F)ncn1)=C2O.Cl", "note": "[Example 107]", "Rate of uptake inhibition (%) (1 µM)": 54}, {"smiles": "C[C@@]12CCCN1N(Cc1ccc(OCCN3CCOCC3)c(F)c1F)C(=O)C(C(=O)Nc1ccc(C(F)(F)F)cc1-c1cc(C(F)(F)F)ncn1)=C2O.Cl", "note": "[Example 108]", "Rate of uptake inhibition (%) (1 µM)": 54}, {"smiles": "Cc1ncc(-c2cc(C(F)(F)F)ccc2NC(=O)C2=C(O)[C@@]3(C)CCCN3N(Cc3cccc(F)c3F)C2=O)cc1C#N", "note": "[Example 109, (4aR)-N-[2-(5-Cyano-6-methylpyridin-3-yl)-4-(trifluoromethyl)phenyl]-1-[(2,3-difluorophenyl)methyl]-4-hydroxy-4-methyl-2-oxo-6,7-dihydro-5H-pyrrolo[1.2-b]pyridazine-3-carboxamide]", "Rate of uptake inhibition (%) (1 µM)": 52}, {"smiles": "CN(C)S(=O)(=O)N1CCC(c2cc(C(F)(F)F)ccc2NC(=O)C2=C(O)[C@@]3(C)CCCN3N(Cc3cccc(F)c3F)C2=O)CC1", "note": "[Example 110]", "Rate of uptake inhibition (%) (1 µM)": 57}]}]}
